The values that follow come from patent publication US20180264282A1, “Specially Designed Kit To Aid Photo-Biologic Eradication Of Staphylococcus Aureus And MRSA In The Nares” (Nomir Medical Technologies, Inc., priority 2017, published 2018).

Values joined by “and” are separate entries in the source; they are usually repeats but may differ in a detail not shown here. Identical values can stand only once. Like-named read-outs stand apart in the source and are kept apart here. Where only a bound is given, the exact number is not on record here.

Test [1] concerns Staphylococcal furunculosis in the nose. Particulars: 25% aqueous solution, topical; patients with chronic Staphylococcal furunculosis in the nose; cited from earlier work.
Test [2] has as its system S. aureus. Description: summary of clinical nasal decolonization studies using mupirocin treatments. The format is in vivo, human. Particulars: administered three times per day versus twice per day. The text has this: Overall, the results from clinical studies of nasal decolonization studies using various mupirocin treatments are summarized in the table below: […]
The test system of test [3] is gram-positive bacteria such as S. aureus. The conditions noted are these: cited from earlier work.
Test [4] has as its system gram-negative enterobacteriacea. The conditions noted are these: cited from earlier work.
Test [5] concerns gram-positive enterococci. The conditions noted are these: cited from earlier work.
Test [6] relates to S. aureus. Particulars: cited from earlier work.
The next test deals with pyogenic skin infections. Particulars: 2% water miscible cream three times per day for five days; assessed day seven; cited from earlier work.
The test system of test [7] is S. aureus. Particulars: cited from earlier work. The source holds these as a separate data set.
Another test concerns MRSA. The conditions noted are these: cited from earlier work.
Test [8] relates to S. aureus. The conditions noted are these: cited from earlier work. This is another data set of the same source.
For test [9], the system named is S. aureus. Particulars: in paraffin intra-nasally b.i.d. for five days; 72 hours after therapy; cited from earlier work.
The test system of test [10] is S. aureus. The conditions noted are these: b.i.d. five day regimen; cited from earlier work.
The subject of test [11] is S. aureus. Particulars: cited from earlier work. This is another data set of the same source.
For test [12], the system named is nasal carriage of staphylococci. The conditions noted are these: in snuff compounds; returned to normal after snuff therapy was discontinued; cited from earlier work.
Test [13] has as its system impetigo and furunculosis. Particulars: spray; cited from earlier work.
Another test relates to sycosis barbae. The conditions noted are these: cream to skin lesions and nose; cited from earlier work.
Test [14] relates to S. aureus. Particulars: after five days of local treatment to the nose, cited from earlier work.
Test [15] has as its system S. aureus. The conditions noted are these: nasal administration; cited from earlier work.
Setting [16] is: three weeks after the treatment phase.

As for `[Cl][Al]([Cl])[Cl]` [aluminum chloride], in test [1], the treatment outcome was “successful treatment outcome for all”.
For the compound `C/C(=C\C(=O)OCCCCCCCCC(=O)O)C[C@@H]1OC[C@H](C[C@@H]2O[C@H]2[C@@H](C)[C@H](C)O)[C@@H](O)[C@H]1O` [mupirocin], the “outcomes t.i.d. compared with b.i.d.” value in the test on S. aureus [2] is listed as “statistically significantly better outcomes”. Besides, the antibacterial activity entry in [3] is reported as “antibacterial activity”; in test [4] it was “not substantial activity”; in test [5] it was “not substantial activity”. Besides, the “cross-resistance with other antibiotics” value in [3] is listed as “no cross-resistance”. Further, the effective concentrations in the test with S. aureus [6] is 0.05 to 0.5 µg/mL. For the same compound, the “mutant inhibitory concentration (MIC)” value in the test on S. aureus [6] is 0.05 µg/mL. Also, the “type of effect at MIC” value in the test with S. aureus [6] (within MIC range cells recover in fresh media, higher concentrations needed for bactericidal effect) is listed as “bacteriostatic”. In addition, in the test on pyogenic skin infections, the “patients with infection completely cleared” value is reported as 43 of the 46. In addition, the “patients with S. aureus carriage eliminated from nares” value in the test with S. aureus [7] (2% in white soft paraffin four times per day, 18 treated) was “all”. Moreover, the “change in MIC to mupirocin on recolonization” value in the test with S. aureus [7] (setting [16]) is “without an increase”. Also, the “patients who regained S. aureus in the nares” value in the test with S. aureus [7] (setting [16]) is listed as “three”. In addition, in the test with MRSA (2% in paraffin t.i.d. for five days, 40 patients and 32 staff), the “treated patients and staff with nasal carriage eliminated” value is “all”. In addition, the “number of patients with MRSA isolated from wrists” value with MRSA (immediately after therapy was completed, from 16 before) is “three”. The “time to elimination of nasal carriage” value in the test with MRSA (usually) was at most 48 h. Moreover, in the test with MRSA (within two weeks after therapy), the patients recolonized entry is given as “Four”. Besides, the “participants with S. aureus eradicated” value in the test with S. aureus [8] (in paraffin t.i.d. for five days, tested four days after the last dose) is reported as 67 of the 69. The “patients recolonized with S. aureus in the nose” value in the test with S. aureus [8] (two weeks post therapy) is listed as “approximately 40%”. The “proportion of hand cultures positive for S. aureus” value with S. aureus [9] is 2.9%. Besides, in the test with S. aureus [10], the “patients with nasal carriage eliminated” value is recorded as “approximately 80%”. For the same compound, the Elimination after trial is 97% in the test on S. aureus [11] (2X-3X per day, 3-8 days); 100% and 97% in the test on S. aureus [11] (3X per Day, 5 Days); 100% in the test on S. aureus [11] (4X per Day, 5 Days). Besides, the Recolonization in the test on S. aureus [11] (at 3 weeks, 4X per Day, 5 Days) was 16% at 3 weeks; with S. aureus [11] (at 4 weeks, 2X per day, 5 days), 43% at 4 weeks and 22% at 4 weeks and 26% at 4 weeks.
For penicillin, the nasal colonies entry in test [12] was “great reduction in nasal colonies”. Moreover, the “use in treatment of impetigo and furunculosis” value in test [13] is on record as “successful”. Also, the healing of patients result with sycosis barbae is “all but one patient healed to satisfaction”. For the same compound, the skin carriage with S. aureus [14] (from 57% before) is on record as 38%. In addition, the “nasal S. aureus carriage” value in the test with S. aureus [14] (from 97% before) was 37%.
On to `Cc1onc(-c2ccccc2)c1C(=O)N[C@@H]1C(=O)N2[C@@H]1SC(C)(C)[C@@H]2C(=O)O` [oxacillin], for which, in the test with S. aureus [15], the “aerial colonies of S. aureus” value was “decreased the aerial colonies of S. aureus” and the nasal colonization entry is recorded as “decreased nasal colonization”.
On to `Nc1ccc(S(=O)(=O)Nc2nccs2)cc1` [sulphathiazole], for which the nasal colonies result in test [12] is reported as “great reduction in nasal colonies”.
